Legend:
[1] = molecular target: T1, PfHAD2 (HAD2, 6×His-HAD2) (Plasmodium falciparum, UniProt Q8I5F4); experiment: EnzChek phosphate release assay (MESG/PNP coupled); format: biochemical; settings: 5 mM substrate, 730 nM enzyme, 20 mM MgCl2, 50 mM Tris-HCl pH 8.0; normalised to D26A mutant
T1 construct: gene PF3D7_1226300; native mass about 33 kDa

[2] = molecular target: T1, PfHAD2 (HAD2, 6×His-HAD2); experiment: continuous absorbance at […] nm; format: biochemical; settings: 10 mM pNPP, 1.2 µM enzyme, 5 mM MgCl2, 50 mM Tris-HCl pH 7.5, 37°C

SMILES | EnzChek phosphate release assay (MESG/PNP coupled) [1] | continuous absorbance at 405 nm [2]
O=P(O)(O)OC(CO)CO [glycerol 2-phosphate] | PfHAD2 is a phosphatase with activity against small phosphosubstrates, such as glc2P | 
O=[N+]([O-])c1ccc(OP(=O)(O)O)cc1 [para-nitrophenyl phosphate] |  | confirmed the phosphatase activity of recombinant PfHAD2 using para-nitrophenyl phosphate (pNPP)

Reference: publication PMC6234871 (mBio, 2018)
